This is an account of results in ChEMBL document CHEMBL4304815, “Photoswitchable Inhibitor of the Calcium Channel TRPV6” (ACS Med Chem Lett, 2019).

Series [1] in a line: Thermal isomerization of the compound in DMSO assessed as E isomer level at 500 uM preincubated for 48 hrs under dark condition followed by irradiated with UV light at 365 nm for 5 mins and subsequent irradiation with UV light at 470 nm for 5 mins measured immediately by UV-Vis spectroscopy.
Series [2] is described as follows: Solubility of the compound in DMSO/buffer at >10 uM. It counts as physicochemical.
Series [3] is described as follows: Drug isomerization in DMSO assessed as Z isomer level at 500 uM irradiated with UV light at 365 nm for 5 mins measured immediately by RP-UHPLC analysis.
Series [4] has as its target T1, Transient receptor potential cation channel subfamily V member 6 (Homo sapiens) (UniProt Q9H1D0).
T1 sequence (whole entry): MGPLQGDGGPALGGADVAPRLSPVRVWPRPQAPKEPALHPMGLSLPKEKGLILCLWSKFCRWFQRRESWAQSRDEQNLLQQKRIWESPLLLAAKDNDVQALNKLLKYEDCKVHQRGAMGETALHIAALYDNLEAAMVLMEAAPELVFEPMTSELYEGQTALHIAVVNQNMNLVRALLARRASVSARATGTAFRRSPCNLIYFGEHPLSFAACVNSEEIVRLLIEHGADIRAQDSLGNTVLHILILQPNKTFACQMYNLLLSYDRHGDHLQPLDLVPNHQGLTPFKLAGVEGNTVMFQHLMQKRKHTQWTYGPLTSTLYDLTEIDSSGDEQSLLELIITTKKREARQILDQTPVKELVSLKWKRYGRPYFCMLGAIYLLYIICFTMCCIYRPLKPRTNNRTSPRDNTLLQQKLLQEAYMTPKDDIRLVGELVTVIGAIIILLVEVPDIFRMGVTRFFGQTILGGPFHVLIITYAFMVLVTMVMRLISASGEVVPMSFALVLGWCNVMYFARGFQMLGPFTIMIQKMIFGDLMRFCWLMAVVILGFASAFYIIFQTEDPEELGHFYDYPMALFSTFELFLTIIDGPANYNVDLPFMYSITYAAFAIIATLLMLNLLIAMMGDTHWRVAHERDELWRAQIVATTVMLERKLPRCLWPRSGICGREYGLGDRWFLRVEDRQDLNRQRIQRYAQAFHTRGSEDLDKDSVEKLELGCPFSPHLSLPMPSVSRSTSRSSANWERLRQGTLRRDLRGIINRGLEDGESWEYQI
In words: Inhibition of human TRPV6 expressed in HEK293 cells assessed as reduction of Cd2+ influx at 10 uM preincubated for 5 mins followed by CdCl2 addition measured under dark state by calcium-5 fluorescence dye-based FLIPR assay relative to control. In kind it is cell-based.

Series [5] is described as follows: Stability in DMSO assessed as parent compound remaining at 500 uM irradiated with UV light at 365 nm for 5 mins measured immediately by RP-UHPLC analysis.
Series [6] can be described thus: Stability in DMSO assessed as parent compound remaining at 500 uM incubated for 48 hrs in dark by RP-UHPLC analysis. In kind it is physicochemical. As to conditions: read-out: Stability.
A short description of series [7]: Drug isomerization in DMSO assessed as Z isomer level at 500 uM incubated for 48 hrs in dark by RP-UHPLC analysis.
Series [8] in a line: Drug isomerization in DMSO assessed as Z isomer level at 500 uM irradiated with UV light at 365 nm for 5 mins measured immediately by UV-vis spectra analysis.
The nature of series [9]: Half life of the compound in DMSO assessed as thermal isomerization by measuring E isomer level at 500 uM incubated for 48 hrs under dark condition by UV-Vis spectroscopy. In kind it is physicochemical.
For series [10], the target named is T1, Transient receptor potential cation channel subfamily V member 6 (Homo sapiens). In words: Inhibition of human TRPV6 expressed in HEK293 cells assessed as reduction in Cd2+ influx at 10 uM preincubated for 5 mins followed by CdCl2 addition using 365 nm UV-light irradiated compound by calcium-5 fluorescence dye-based FLIPR assay. In kind it is cell-based.
Series [11] addresses T2, Transient receptor potential cation channel subfamily V member 6 (Homo sapiens, UniProt Q9H1D0).
T2 sequence (Q9H1D0 whole entry): T1 sequence (whole entry)
In words: Inhibition of human TRPV6 expressed in HEK293 cells assessed as reduction in Cd2+ influx preincubated for 5 mins followed by CdCl2 addition using 365 nm UV-light irradiated compound by calcium-5 fluorescence dye-based FLIPR assay. It counts as cell-based.

Series [12] concerns the target T1, Transient receptor potential cation channel subfamily V member 6 (Homo sapiens). As to the kind of experiment: Inhibition of human YFP-fused TRPV6 expressed in HEK293 cells assessed as decrease in whole cell inward calcium current density at 10 uM at 50 mV holding potential pre-irradiated with 365 nm UV-light followed by […] irradiation by patch clamp assay. In kind it is cell-based.

For series [13] the target is unchanged. In words: Inhibition of human YFP-fused TRPV6 expressed in HEK293 cells assessed as decrease in whole cell inward calcium current density at 10 uM at 50 mV holding potential under 365 nm UV-light irradiation by patch clamp assay. It counts as cell-based.
The nature of series [14]: Drug isomerization in DMSO assessed as Z isomer level by measuring maximum absorbance at 500 uM irradiated with UV light at 365 nm for 5 mins measured immediately by UV-vis spectra analysis.
Series [15] addresses T1, Transient receptor potential cation channel subfamily V member 6 (Homo sapiens). In words: Inhibition of human peTFP-C1-TRPV6 expressed in HEK293 cells assessed as decrease in whole cell inward calcium current density at 10 uM at 50 mV holding potential by patch clamp assay. It counts as cell-based. Background: The patch-clamp technique gives a direct electrical read-out from membranes.

For series [16], the target named is T2, Transient receptor potential cation channel subfamily V member 6. As to the kind of experiment: Inhibition of human TRPV6 expressed in HEK293 cells assessed as reduction of Cd2+ influx preincubated for 5 mins followed by CdCl2 addition measured under dark state by calcium-5 fluorescence dye-based FLIPR assay. It counts as cell-based.

SMILES strings stand for the structures. Active and inactive are the calls of the source. The rule behind the calls is not given here.

Take `c1ccc(/N=N\c2ccc(N3CCN([C@H]4CC[C@@H](c5ccccc5)CC4)CC3)cc2)cc1`: the Drug metabolism result in [1] is “Metabolite detected”.

Consider `c1ccc(/N=N/c2ccc(N3CCN([C@H]4CC[C@@H](c5ccccc5)CC4)CC3)cn2)cc1`, for which the solubility entry in series [2] is “Insoluble”. The Z isomer level in [3] was 12%; in series [7], 0%. The inhibition in series [4] came to 30%. In addition, the Stability in series [5] was found to be 88%. Moreover, the remaining at 48 h, 500 µM in series [6] stood at 100%. In [8], the Drug metabolism result is “Metabolite not detected”.

For the compound `c1ccc([C@H]2CC[C@@H](N3CCN(c4ccc(/N=N\c5cccnc5)cc4)CC3)CC2)cc1`, the Drug metabolism entry in series [1] is “Metabolite detected”.

Consider `c1ccc(/N=N\c2ccc(N3CCN([C@H]4CC[C@@H](c5ccccc5)CC4)CC3)cn2)cc1`, for which the half-life at 500 µM in [9] was determined as 0.137 h. In series [10], the inhibition entry was “Active”.

Regarding `c1ccc(/N=N\c2ccc(CN3CCN([C@H]4CC[C@@H](c5ccccc5)CC4)CC3)cc2)cc1`, the concentration for half-maximal inhibition (IC50) in series [11] was found to be 1700 nM. For the same compound, the inhibition result in series [12], in series [10] and in [13] was “Active” in each case. Also, the Drug metabolism entry in [1] is “Metabolite detected”. For the same compound, the half-life at 500 µM in series [9] is 93.6 h.

For the compound `c1ccc([C@H]2CC[C@@H](N3CCN(c4ccc(/N=N/c5cccnc5)cc4)CC3)CC2)cc1`, in series [2], the solubility result was “Insoluble”. For the same compound, the Z isomer level in [3] and in series [7] was 0% each time. The Stability in series [5] is 100%. The remaining at 48 h, 500 µM in series [6] was 100%. Further, the Drug metabolism entry in series [8] was “Metabolite not detected”.

On to `c1ccc(/N=N/c2ccc(CN3CCN([C@H]4CC[C@@H](c5ccccc5)CC4)CC3)cc2)cc1`, for which the solubility result in [2] is “Insoluble”. Further, the Activity in [14] lay within 400 to 500 nm. The Z isomer level in series [3] stood at 75%; in [7] it was 3%. The inhibition in series [4] is 13%. For the same compound, in series [5], the Stability was determined as 25%. Further, the remaining at 48 h, 500 µM in series [6] worked out at 97%. The inhibition result in series [15] was “Active”. In addition, the IC50 in series [16] was > 10000 nM.

Regarding `c1ccc(/N=N\c2ccc(CN3CCN([C@H]4CC[C@@H](c5ccccc5)CC4)CC3)cn2)cc1`, the half-inhibitory concentration (IC50) in series [11] came to 600 nM. In [9], the half-life at 500 µM is 3.7 h. The inhibition entry in series [10] was “Active”.

Regarding `c1ccc(/N=N/c2ccc(N3CCN([C@H]4CC[C@@H](c5ccccc5)CC4)CC3)cc2)cc1`, the solubility result in series [2] was “Insoluble”. Also, the Z isomer level in [3] and in series [7] was 7% each time. The Stability in series [5] was 93%. For the same compound, the remaining at 48 h, 500 µM in series [6] is 93%. Also, the Drug metabolism entry in series [8] is on record as “Metabolite not detected”.

Regarding `c1ccc(/N=N/c2ccc(CN3CCN([C@H]4CC[C@@H](c5ccccc5)CC4)CC3)cn2)cc1`, the solubility result in series [2] is given as “Insoluble”. The Activity in series [14] was in the range of 400 to 500 nm. Moreover, the Z isomer level in series [3] is 50%; in series [7], 0%. Besides, the inhibition in [4] was 70%. For the same compound, the Stability in series [5] came to 50%. For the same compound, in series [6], the remaining at 48 h, 500 µM was 100%. The half-maximal inhibitory concentration (IC50) in series [16] was 600 nM.

The inhibition is the drop in the measured response relative to a control, in per cent. Broadly, the half-life is how long it takes for the measured level to halve. As usually defined, the IC50 is the concentration that gives 50% inhibition.
